Data reported in ChEMBL document CHEMBL1909046, “DrugMatrix in vitro pharmacology data”.

Legend:
[1] = molecular target: T1, 5-hydroxytryptamine receptor 2C (Homo sapiens, UniProt P28335); test: DRUGMATRIX: Serotonin (5-Hydroxytryptamine) 5-HT2C radioligand binding (ligand: [3H] Mesulergine); assay type: cell membranes, CHO-K1, Membrane; details: cho-k1; Not Active = under 50% inhibition at 10 µM
T1 sequence (P28335 whole entry): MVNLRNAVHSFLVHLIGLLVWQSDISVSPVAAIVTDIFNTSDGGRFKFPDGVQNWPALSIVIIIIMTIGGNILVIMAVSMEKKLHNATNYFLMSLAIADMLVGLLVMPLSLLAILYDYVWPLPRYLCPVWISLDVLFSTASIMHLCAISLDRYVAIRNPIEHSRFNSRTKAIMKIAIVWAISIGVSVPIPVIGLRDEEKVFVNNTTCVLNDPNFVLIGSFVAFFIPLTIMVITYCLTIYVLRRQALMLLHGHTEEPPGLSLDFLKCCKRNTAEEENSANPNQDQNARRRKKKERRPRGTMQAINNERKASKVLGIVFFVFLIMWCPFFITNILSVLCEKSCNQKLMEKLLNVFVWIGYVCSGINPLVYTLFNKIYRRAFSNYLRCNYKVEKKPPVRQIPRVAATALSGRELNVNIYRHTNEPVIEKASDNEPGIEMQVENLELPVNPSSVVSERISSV

Endothelin-1 receptor = molecular target: T2, Endothelin-1 receptor (Homo sapiens, UniProt P25101); assay type: cell membranes, CHO-K1, Membrane; details: cho-k1; note: in other assays of this panel Not Active means under 50% inhibition at 10 µM
T2 sequence (P25101 whole entry): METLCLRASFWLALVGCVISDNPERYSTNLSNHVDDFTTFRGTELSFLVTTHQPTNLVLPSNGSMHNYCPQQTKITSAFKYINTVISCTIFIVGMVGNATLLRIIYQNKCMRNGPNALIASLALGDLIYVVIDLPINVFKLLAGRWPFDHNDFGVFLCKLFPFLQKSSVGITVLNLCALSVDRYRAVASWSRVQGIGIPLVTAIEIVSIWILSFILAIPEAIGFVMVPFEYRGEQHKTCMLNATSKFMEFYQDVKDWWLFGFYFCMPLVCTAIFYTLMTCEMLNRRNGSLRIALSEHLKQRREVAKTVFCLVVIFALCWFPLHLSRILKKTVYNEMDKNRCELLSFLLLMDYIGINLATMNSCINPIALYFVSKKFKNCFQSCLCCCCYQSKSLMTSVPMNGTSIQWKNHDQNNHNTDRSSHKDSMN

[2] = molecular target: cGMP-specific 3',5'-cyclic phosphodiesterase (Homo sapiens, UniProt O76074); test: DRUGMATRIX: Phosphodiesterase PDE5 enzyme inhibition (substrate: [3H]cGMP + cGMP); assay type: tissue-based; details: platelet; Not Active = under 50% inhibition at 10 µM
[3] = molecular target: Sodium-dependent dopamine transporter (Homo sapiens, UniProt Q01959); test: DRUGMATRIX: Dopamine Transporter radioligand binding (ligand: [125I] RTI-55); assay type: cell membranes, CHO-K1, Membrane; details: cho-k1; Not Active = under 50% inhibition at 10 µM
[4] = molecular target: Voltage-gated inwardly rectifying potassium channel KCNH2 (Homo sapiens, UniProt Q12809); details: hek293; note: in other assays of this panel Not Active means under 50% inhibition at 10 µM
[5] = molecular target: T3, Polyunsaturated fatty acid lipoxygenase ALOX15 (Oryctolagus cuniculus, UniProt P12530); test: biochemical; assay type: tissue-based, Reticulocytes; details: reticulocytes;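 note: inhibition of 15-lipoxygenase enzyme activity measured with linoleic acid as the substrate; in other assays of this panel Not Active means under 50% inhibition at 10 µM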
T3 sequence (P12530 whole entry): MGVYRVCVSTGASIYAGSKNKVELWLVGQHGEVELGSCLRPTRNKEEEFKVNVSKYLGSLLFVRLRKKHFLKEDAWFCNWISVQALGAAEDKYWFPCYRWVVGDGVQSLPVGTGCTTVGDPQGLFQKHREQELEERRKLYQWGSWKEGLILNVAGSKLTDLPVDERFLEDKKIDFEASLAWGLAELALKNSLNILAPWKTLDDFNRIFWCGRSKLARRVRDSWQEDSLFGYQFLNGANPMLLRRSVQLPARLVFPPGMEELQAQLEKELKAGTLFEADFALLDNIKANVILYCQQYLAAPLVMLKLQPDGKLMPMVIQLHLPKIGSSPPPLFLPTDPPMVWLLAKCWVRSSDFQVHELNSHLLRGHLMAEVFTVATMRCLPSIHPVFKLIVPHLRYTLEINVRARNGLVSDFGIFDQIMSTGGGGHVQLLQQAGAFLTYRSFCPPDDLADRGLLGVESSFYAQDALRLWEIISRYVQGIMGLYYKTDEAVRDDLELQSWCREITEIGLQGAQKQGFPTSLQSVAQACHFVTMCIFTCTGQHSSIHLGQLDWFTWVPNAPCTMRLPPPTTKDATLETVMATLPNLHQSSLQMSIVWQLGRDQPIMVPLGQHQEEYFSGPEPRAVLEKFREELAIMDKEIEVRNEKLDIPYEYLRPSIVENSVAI

[6] = molecular target: Protein phosphatase 3 catalytic subunit alpha (Homo sapiens, UniProt Q08209); parameters: species or system Escherichia coli;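 note: inhibition of calcineurin (PP2B) enzyme activity, measured with DiFMUP as the substrate; in other assays of this panel Not Active means under 50% inhibition at 10 µM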

Chain of Sodium-dependent dopamine transporter (Q01959 whole entry): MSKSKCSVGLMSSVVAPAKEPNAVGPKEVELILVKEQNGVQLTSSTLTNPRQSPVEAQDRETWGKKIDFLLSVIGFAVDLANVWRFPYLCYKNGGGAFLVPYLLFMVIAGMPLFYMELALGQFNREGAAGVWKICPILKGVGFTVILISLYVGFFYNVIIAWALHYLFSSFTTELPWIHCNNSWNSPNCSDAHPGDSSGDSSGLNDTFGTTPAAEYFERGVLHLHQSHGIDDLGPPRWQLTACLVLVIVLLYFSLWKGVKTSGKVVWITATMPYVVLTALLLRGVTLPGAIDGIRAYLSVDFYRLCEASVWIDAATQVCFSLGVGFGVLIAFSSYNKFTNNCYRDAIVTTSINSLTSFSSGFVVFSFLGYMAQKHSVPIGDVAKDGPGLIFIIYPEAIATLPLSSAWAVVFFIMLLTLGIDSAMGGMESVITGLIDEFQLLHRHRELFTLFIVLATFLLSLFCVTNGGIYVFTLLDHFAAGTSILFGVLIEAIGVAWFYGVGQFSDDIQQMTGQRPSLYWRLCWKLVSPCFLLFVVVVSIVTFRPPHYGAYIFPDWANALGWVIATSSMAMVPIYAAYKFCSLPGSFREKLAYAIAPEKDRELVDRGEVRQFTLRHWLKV
Chain of Voltage-gated inwardly rectifying potassium channel KCNH2 (Q12809 whole entry): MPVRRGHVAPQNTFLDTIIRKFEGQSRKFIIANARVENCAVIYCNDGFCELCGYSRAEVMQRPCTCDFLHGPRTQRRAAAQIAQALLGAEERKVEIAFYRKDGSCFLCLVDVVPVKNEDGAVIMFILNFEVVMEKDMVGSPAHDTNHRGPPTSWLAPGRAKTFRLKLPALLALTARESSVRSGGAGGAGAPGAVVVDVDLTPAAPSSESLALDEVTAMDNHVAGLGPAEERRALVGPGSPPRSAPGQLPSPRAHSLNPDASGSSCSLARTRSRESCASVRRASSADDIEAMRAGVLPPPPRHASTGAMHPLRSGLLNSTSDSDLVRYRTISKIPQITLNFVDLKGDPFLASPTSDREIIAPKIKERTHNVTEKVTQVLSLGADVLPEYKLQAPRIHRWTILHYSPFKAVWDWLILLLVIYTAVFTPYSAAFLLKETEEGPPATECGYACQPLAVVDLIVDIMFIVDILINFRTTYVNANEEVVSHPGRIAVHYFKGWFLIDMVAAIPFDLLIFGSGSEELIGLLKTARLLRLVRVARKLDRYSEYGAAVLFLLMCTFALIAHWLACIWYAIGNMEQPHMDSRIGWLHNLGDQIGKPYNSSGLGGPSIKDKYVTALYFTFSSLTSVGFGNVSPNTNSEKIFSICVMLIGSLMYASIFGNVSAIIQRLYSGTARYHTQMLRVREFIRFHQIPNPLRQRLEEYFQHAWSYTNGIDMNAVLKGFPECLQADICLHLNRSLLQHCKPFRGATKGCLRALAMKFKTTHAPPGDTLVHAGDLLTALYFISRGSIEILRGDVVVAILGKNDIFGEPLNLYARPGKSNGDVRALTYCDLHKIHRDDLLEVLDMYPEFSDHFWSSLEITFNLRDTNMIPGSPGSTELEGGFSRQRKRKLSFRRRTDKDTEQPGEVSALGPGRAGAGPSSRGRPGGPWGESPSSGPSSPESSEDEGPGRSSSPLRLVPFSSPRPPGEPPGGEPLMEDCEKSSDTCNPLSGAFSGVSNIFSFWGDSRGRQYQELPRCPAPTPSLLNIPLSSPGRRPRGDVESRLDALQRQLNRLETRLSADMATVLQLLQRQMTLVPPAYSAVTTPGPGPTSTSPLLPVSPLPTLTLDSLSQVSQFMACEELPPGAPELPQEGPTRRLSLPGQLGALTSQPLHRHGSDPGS

CC(C)(CO)C(O)C(=O)NCCCO (stereo not given) [PANTHENOL]
Not Active: IC50 [1] | IC50 (Endothelin-1 receptor) | IC50 [2] | IC50 [3] | IC50 [4] | Ki [4] | IC50 [5] | IC50 [6]

COc1ccc(Cc2nccc3cc(OC)c(OC)cc23)cc1OC [PAPAVERINE]
Not Active: IC50 [1] | IC50 (Endothelin-1 receptor) | IC50 [2] | IC50 [3] | IC50 [4] | Ki [4] | IC50 [5] | IC50 [6]

CCCCC1C(=O)N(c2ccccc2)N(c2ccccc2)C1=O [PHENYLBUTAZONE]
Not Active: IC50 [1] | IC50 (Endothelin-1 receptor) | IC50 [2] | IC50 [3] | IC50 [4] | Ki [4] | IC50 [5] | IC50 [6]

Cc1cccc(Nc2cc(Cl)nc(SCC(=O)O)n2)c1C [PIRINIXIC ACID]
Not Active: IC50 [1] | IC50 (Endothelin-1 receptor) | IC50 [2] | IC50 [3] | IC50 [4] | Ki [4] | IC50 [5] | IC50 [6]

CC[C@H](C)C(=O)O[C@H]1C[C@H](O)C=C2C=C[C@H](C)[C@H](CC[C@@H](O)C[C@@H](O)CC(=O)O)[C@H]21 [PRAVASTATIN]
Not Active: IC50 [1] | IC50 (Endothelin-1 receptor) | IC50 [2] | IC50 [3] | IC50 [4] | Ki [4] | IC50 [5] | IC50 [6]

CC(C)(Sc1cc(C(C)(C)C)c(O)c(C(C)(C)C)c1)Sc1cc(C(C)(C)C)c(O)c(C(C)(C)C)c1 [PROBUCOL]
Not Active: IC50 [1] | IC50 (Endothelin-1 receptor) | IC50 [2] | IC50 [3] | IC50 [4] | Ki [4] | IC50 [5] | IC50 [6]

COBALT(II) ACETYLACETONATE
Not Active: IC50 [1] | Ki [1] | IC50 (Endothelin-1 receptor) | Ki (Endothelin-1 receptor) | IC50 [2] | Ki [2] | IC50 [3] | Ki [3] | IC50 [4] | Ki [4] | IC50 [5] | Ki [5] | IC50 [6] | Ki [6]

INSULIN HUMAN
Not Active: IC50 [1] | Ki [1] | IC50 (Endothelin-1 receptor) | Ki (Endothelin-1 receptor) | IC50 [2] | Ki [2] | IC50 [3] | Ki [3] | IC50 [4] | Ki [4] | IC50 [5] | Ki [5] | IC50 [6] | Ki [6]

POLYVINYL ALCOHOL
Not Active: IC50 [1] | Ki [1] | IC50 (Endothelin-1 receptor) | Ki (Endothelin-1 receptor) | IC50 [2] | Ki [2] | IC50 [3] | Ki [3] | IC50 [4] | Ki [4] | IC50 [5] | Ki [5] | IC50 [6] | Ki [6]
